The text below walks through data of US10112941B2, “Tricyclic compounds as anticancer agents” (BRISTOL-MYERS SQUIBB COMPANY, priority 2013, dated 2018).

A value given as a limit tells only on which side of the number the result lay.

In general, IC50 refers to the concentration needed to halve the response being measured.

The assay deals with BRD4 (Homo sapiens, UniProt O60885). The experiment in a line: Time Resolved Fluorescence Resonance Energy Transfer (TR-FRET) binding assay, BRD4. As to conditions: one of the FRET assays described; read-out: FRET BRD4 IC50.
Take `COc1nnn(C)c1-c1cnc2c3ccc(S(C)(=O)=O)cc3n([C@H](c3ccccc3)C3CCOCC3)c2c1` [Example 391, 5-{7-Methanesulfonyl-5-[(S)-oxan-4-yl(phenyl)methyl]-5H-pyrido[3,2-b]indol-3-yl}-4-methoxy-1-methyl-1H-1,2,3-triazole]: the IC50 is below 5 nM.

For `[2H]C([2H])([2H])Oc1nnn(C)c1-c1cnc2c3ccc(NC(=O)OC(C)C)cc3n([C@H](c3ccccc3)C3CCOCC3)c2c1` [Example 392, Propan-2-yl N-{3-[4-(^2H3)methoxy-1-methyl-1H-1,2,3-triazol-5-yl]-5-[(S)-oxan-4-yl(phenyl)methyl]-5H-pyrido[3,2-b]indol-7-yl}carbamate], the IC50 was below 5 nM.

As to `[2H]C([2H])([2H])c1nnn(C)c1-c1cnc2c3ccc(C(C)(C)O)c(Cl)c3n([C@H](c3ccccc3)C3CCOCC3)c2c1` [Example 393, 2-{6-Chloro-3-[4-(^2H3)methyl-1-methyl-1H-1,2,3-triazol-5-yl]-5-[(S)-oxan-4-yl(phenyl)methyl]-5H-pyrido[3,2-b]indol-7-yl}propan-2-ol], the IC50 is below 5 nM.

For `Cc1nnn(C)c1-c1cnc2c3ccc(CO)cc3n([C@H](c3ccccc3)C3CCOCC3)c2c1` [Example 405, [3-(Dimethyl-1H-1,2,3-triazol-5-yl)-5-[(S)-oxan-4-yl(phenyl)methyl]-5H-pyrido[3,2-b]indol-7-yl]methanol], the IC50 is below 5 nM.

Consider `[2H]C([2H])(O)c1ccc2c3ncc(-c4c(C)nnn4C)cc3n([C@H](c3ccccc3)C3CCOCC3)c2c1` [Example 407, [3-(Dimethyl-1H-1,2,3-triazol-5-yl)-5-[(S)-oxan-4-yl(phenyl)methyl]-5H-pyrido[3,2-b]indol-7-yl](^2H2)methanol], for which the IC50 is below 5 nM.

With `Cc1nnn(C)c1-c1cnc2c3ccc(C(O)(C4CC4)C4CC4)cc3n([C@H](c3ccccc3)C3CCOCC3)c2c1` [Example 408, Dicyclopropyl[3-(dimethyl-1H-1,2,3-triazol-5-yl)-5-[(S)-oxan-4-yl(phenyl)methyl]-5H-pyrido[3,2-b]indol-7-yl]methanol], the half-inhibitory concentration (IC50) is below 5 nM.

Regarding `Cc1nnn(C)c1-c1cnc2c3cc(Cl)c(C(C)(C)O)cc3n([C@H](c3ccccc3)C3CCOCC3)c2c1` [Example 409, 2-[8-Chloro-3-(dimethyl-1H-1,2,3-triazol-5-yl)-5-[(S)-oxan-4-yl(phenyl)methyl]-5H-pyrido[3,2-b]indol-7-yl]propan-2-ol], the 50% inhibitory concentration (IC50) is below 5 nM.

Turning to `Cc1nnn(C)c1-c1cnc2c3ccc(C(C)(C)NS(C)(=O)=O)cc3n([C@H](c3ccccc3)C3CCOCC3)c2c1` [Example 411, N-{2-[3-(Dimethyl-1H-1,2,3-triazol-5-yl)-5-[(S)-oxan-4-yl(phenyl)methyl]-5H-pyrido[3,2-b]indol-7-yl]propan-2-yl}methanesulfonamide], the IC50 is below 5 nM.

On to `COC(=O)NC(C)(C)c1ccc2c3ncc(-c4c(C)nnn4C)cc3n([C@H](c3ccccc3)C3CCOCC3)c2c1` [Example 412, Methyl N-{2-[3-(dimethyl-1H-1,2,3-triazol-5-yl)-5-[(S)-oxan-4-yl(phenyl)methyl]-5H-pyrido[3,2-b]indol-7-yl]propan-2-yl}carbamate], for which the 50% inhibitory concentration (IC50) was below 5 nM.

As for `Cc1nnn(C)c1-c1cnc2c3ccc(C(=O)N4CC(F)C4)cc3n([C@H](c3ccccc3)C3CCOCC3)c2c1` [Example 413, 5-[7-(3-Fluoroazetidine-1-carbonyl)-5-[(S)-oxan-4-yl(phenyl)methyl]-5H-pyrido[3,2-b]indol-3-yl]-1,4-dimethyl-1H-1,2,3-triazole], the half-maximal inhibitory concentration (IC50) is below 5 nM.

With `Cc1nnn(C)c1-c1cnc2c3ccc(C(=O)N4CC(F)(F)C4)cc3n([C@H](c3ccccc3)C3CCOCC3)c2c1` [Example 414, 5-[7-(3,3-Difluoroazetidine-1-carbonyl)-5-[(S)-oxan-4-yl(phenyl)methyl]-5H-pyrido[3,2-b]indol-3-yl]-1,4-dimethyl-1H-1,2,3-triazole], the IC50 was below 5 nM.

Regarding `Cc1nnn(C)c1-c1cnc2c3ccc(C(C)(O)C4CC4)c(F)c3n([C@H](c3ccccc3)C3CCOCC3)c2c1` (stereo partly drawn) [Example 415, 1-Cyclopropyl-1-{6-fluoro-3-[4-(^2H3)methyl-1-methyl-1H-1,2,3-triazol-5-yl]-5-[(S)-oxan-4-yl(phenyl)methyl]-5H-pyrido[3,2-b]indol-7-yl}ethan-1-ol], the 50% inhibitory concentration (IC50) was below 5 nM.

Regarding `Cc1nnn(C)c1-c1cnc2c3ccc(C(C)(O)C4CC4)c(F)c3n([C@H](c3ccccc3)C3CCOCC3)c2c1` (stereo partly drawn) [Example 416, 1-Cyclopropyl-1-{6-fluoro-3-[4-(^2H3)methyl-1-methyl-1H-1,2,3-triazol-5-yl]-5-[(S)-oxan-4-yl(phenyl)methyl]-5H-pyrido[3,2-b]indol-7-yl}ethan-1-ol], the half-inhibitory concentration (IC50) was below 5 nM.

As to `Cc1cnn(C)c1-c1cnc2c3ccc(S(C)(=O)=O)cc3n([C@H](c3ccccc3)C3CCOCC3)c2c1` [Example 417, 5-{7-Methanesulfonyl-5-[(S)-oxan-4-yl(phenyl)methyl]-5H-pyrido[3,2-b]indol-3-yl}-1,4-dimethyl-1H-pyrazole], the IC50 is below 5 nM.

Regarding `Cn1nccc1-c1cnc2c3ccc(S(C)(=O)=O)cc3n([C@H](c3ccccc3)C3CCOCC3)c2c1` [Example 418, 5-{7-Methanesulfonyl-5-[(S)-oxan-4-yl(phenyl)methyl]-5H-pyrido[3,2-b]indol-3-yl}-1-methyl-1H-pyrazole], the IC50 was below 25 nM.

As for `Cc1nnn(C)c1-c1cnc2c3ccc(C4(O)CC4)cc3n([C@H](c3ccccc3)C3CCOCC3)c2c1` [Example 419, 1-[3-(Dimethyl-1H-1,2,3-triazol-5-yl)-5-[(S)-oxan-4-yl(phenyl)methyl]-5H-pyrido[3,2-b]indol-7-yl]cyclopropan-1-ol], the IC50 was below 5 nM.

In the case of `C=C(C)c1ccc2c3ncc(-c4c(C)nnn4C)cc3n([C@H](c3ccccc3)C3CCOCC3)c2c1` [Example 420, 1,4-Dimethyl-5-{5-[(S)-oxan-4-yl(phenyl)methyl]-7-(prop-1-en-2-yl)-5H-pyrido[3,2-b]indol-3-yl}-1H-1,2,3-triazole], the IC50 is below 5 nM.

As for `CC(=O)c1ccc2c3ncc(-c4c(C)nnn4C)cc3n([C@H](c3ccccc3)C3CCOCC3)c2c1` [Example 421, 1-[3-(Dimethyl-1H-1,2,3-triazol-5-yl)-5-[(S)-oxan-4-yl(phenyl)methyl]-5H-pyrido[3,2-b]indol-7-yl]ethan-1-one], the IC50 is below 5 nM.

Consider `Cc1nnn(C)c1-c1cnc2c3ccc(C(C)(O)CO)cc3n([C@H](c3ccccc3)C3CCOCC3)c2c1` (stereo partly drawn) [Example 424, 2-[3-(Dimethyl-1H-1,2,3-triazol-5-yl)-5-[(S)-oxan-4-yl(phenyl)methyl]-5H-pyrido[3,2-b]indol-7-yl]propane-1,2-diol], for which the IC50 was below 5 nM.

For the compound `Cc1nnn(C)c1-c1cnc2c3cc(C(=O)N4CC(C)(O)C4)ccc3n([C@H](c3ccccc3)C3CCOCC3)c2c1` [Example 427, 1-[3-(Dimethyl-1H-1,2,3-triazol-5-yl)-5-[(S)-oxan-4-yl(phenyl)methyl]-5H-pyrido[3,2-b]indole-8-carbonyl]-3-methylazetidin-3-ol], the IC50 was below 5 nM.

Regarding `Cc1nnn(C)c1-c1cnc2c3ccc([C@@](C)(O)C4CC4)c(F)c3n([C@H](c3ccccc3)C3CCOCC3)c2c1` [Example 431, (1S)-1-Cyclopropyl-1-[3-(dimethyl-1H-1,2,3-triazol-5-yl)-6-fluoro-5-[(S)-oxan-4-yl(phenyl)methyl]-5H-pyrido[3,2-b]indol-7-yl]ethan-1-ol], the IC50 is below 5 nM.

As to `Cc1nnn(C)c1-c1cnc2c3ccc([C@](C)(O)C4CC4)c(F)c3n([C@H](c3ccccc3)C3CCOCC3)c2c1` [Example 434, (1R)-1-cyclopropyl-1-{6-fluoro-3-[4-(^2H3)methyl-1-methyl-1H-1,2,3-triazol-5-yl]-5-[(S)-oxan-4-yl(phenyl)methyl]-5H-pyrido[3,2-b]indol-7-yl}ethan-1-ol], the IC50 is below 5 nM.

`[2H]C([2H])([2H])c1nnn(C)c1-c1cnc2c3ccc(C(C)(O)C4CC4)c(F)c3n([C@H](c3ccccc3F)C3CCOCC3)c2c1` (stereo partly drawn) [Example 437, 1-Cyclopropyl-1-{6-fluoro-5-[(S)-(2-fluorophenyl)(oxan-4-yl)methyl]-3-[4-(^2H3)methyl-1-methyl-1H-1,2,3-triazol-5-yl]-5H-pyrido[3,2-b]indol-7-yl}ethan-1-ol]: the IC50 is below 5 nM.

Regarding `COc1nnn(C)c1-c1cnc2c3ccc(C(C)(O)C4CC4)c(F)c3n([C@H](c3ccccc3)C3CCOCC3)c2c1` (stereo partly drawn) [Example 439, 1-Cyclopropyl-1-[6-fluoro-3-(4-methoxy-1-methyl-1H-1,2,3-triazol-5-yl)-5-[(S)-oxan-4-yl(phenyl)methyl]-5H-pyrido[3,2-b]indol-7-yl]ethan-1-ol], the IC50 is below 5 nM.

Take `[2H]C([2H])([2H])c1nnn(C)c1-c1cnc2c3cc(F)c(C(C)(O)C4CC4)cc3n([C@H](c3ccccc3)C3CCOCC3)c2c1` (stereo partly drawn) [Example 445, 1-Cyclopropyl-1-{8-fluoro-3-[4-(^2H3)methyl-1-methyl-1H-1,2,3-triazol-5-yl]-5-[(S)-oxan-4-yl(phenyl)methyl]-5H-pyrido[3,2-b]indol-7-yl}ethan-1-ol]: the IC50 was below 5 nM.

On to `[2H]C([2H])([2H])c1nnn(C)c1-c1cnc2c3cc(F)c(C(C)(O)C4CC4)cc3n([C@H](c3ccccc3)C3CCOCC3)c2c1` (stereo partly drawn) [Example 446, 1-Cyclopropyl-1-{8-fluoro-3-[4-(^2H3)methyl-1-methyl-1H-1,2,3-triazol-5-yl]-5-[(S)-oxan-4-yl(phenyl)methyl]-5H-pyrido[3,2-b]indol-7-yl}ethan-1-ol], for which the IC50 was below 5 nM.

As to `[2H]C([2H])([2H])c1nnn(C)c1-c1cnc2c3cc(F)c(C(C)(C)O)c(F)c3n([C@H](c3ccccc3)C3CCOCC3)c2c1` [Example 452, 2-{6,8-Difluoro-3-[4-(^2H3)methyl-1-methyl-1H-1,2,3-triazol-5-yl]-5-[(S)-oxan-4-yl(phenyl)methyl]-5H-pyrido[3,2-b]indol-7-yl}propan-2-ol], the IC50 was below 5 nM.

For the compound `Cn1nncc1-c1cnc2c3ccc(S(C)(=O)=O)cc3n([C@H](c3ccccc3)C3CCOCC3)c2c1` [Example 453, 5-{7-Methanesulfonyl-5-[(S)-oxan-4-yl(phenyl)methyl]-5H-pyrido[3,2-b]indol-3-yl}-1-methyl-1H-1,2,3-triazole], the IC50 was below 5 nM.
